In article PMC10010340, “The Wnt Pathway Inhibitor RXC004 Blocks Tumor Growth and Reverses Immune Evasion in Wnt Ligand–dependent Cancer Models” (Cancer Research Communications, 2022):

Assays:
[1] = system: colorectal cancer xenografts with RSPO3 translocations; parameters: method as in PMID 26257057; settings: cited from earlier work
SNU-1411 cells = test: In vitro glucose uptake; type: cell-based, human; settings: SNU-1411, Latrunculin A 500 nmol/L, 48 hours
Procedure: (§1) SNU-1411, HPAF-II, and HCT116 cells were treated in vitro for 48 hours with RXC004 (100 nmol/L), Latrunculin A (Abcam #ab144290; 500 nmol/L), or DMSO prior to analysis using the Glucose Uptake Glo Assay Kit (Promega #J1341). The ATPlite assay was used to control for cell viability, confirming RXC004 has no effect on proliferation at this 48 hours timepoint.

HPAF-II cells = test: In vitro glucose uptake; type: cell-based, human; settings: Latrunculin A 500 nmol/L, 48 hours
Procedure: as §1

HCT116 cells = test: In vitro glucose uptake; type: cell-based, human; settings: HCT116, Latrunculin A 500 nmol/L, 48 hours
Procedure: as §1

Compound	duration of tumor regrowth suppression after withdrawal of treatment [1]	glucose uptake (SNU-1411 cells)	glucose uptake (HPAF-II cells)	glucose uptake (HCT116 cells)
Cn1c(=O)c2c(ncn2CC(=O)Nc2ccc(-c3ccccc3)nn2)n(C)c1=O [ETC-159]	up to 6 weeks			
C/C1=C/C(=O)O[C@@H]2C[C@@H](CC[C@H](C)/C=C\C=C\CC1)O[C@@](O)([C@@H]1CSC(=O)N1)C2 [Latrunculin A, reference compound]		blocked glucose uptake	blocked glucose uptake	blocked glucose uptake
